# Residues, ends and D or L forms follow the SMILES beside them. *: point of attachment. Tos = Cc1ccc(S(=O)(=O)*)cc1; Cam = NC(=O)C*
row,Structure (SMILES),melting point
1,COC(=O)c1cccc(C=CC(=O)O)c1,189 to 190 °C
2,CCc1nc2ccc3c(c2o1)C(CCNC(C)=O)CC3 (configuration not stated),76 to 78 °C
3,CCCc1c(OCc2cccc(C(=O)OC)c2)ccc(C(C)=O)c1O,141 to 143 °C
4,Cc1ccc(NC(N)=S)c(O)c1,175 to 177 °C
5,CC1Oc2ccc(C(=O)CCC(=O)O)cc2NC1=O (configuration not stated),198 to 200 °C
6,COCc1c(C(=O)OC(C)C)ncc2[nH]c3cccc(Oc4ccc(Cl)cn4)c3c12,190 to 191 °C
7,CCOc1cc(C(F)(F)F)nc(N)n1,114 to 116 °C
8,C=Cc1cn([C@@H]2O[C@H](C)[C@@H](OC(C)=O)[C@H]2OC(C)=O)c(=O)nc1N,198 to 199 °C
9,CCOC(=O)Oc1ccc(S(=O)(=O)N2c3cc(F)ccc3-n3cccc3C2CC)cc1 (configuration not stated),96 to 97 °C
10,COc1ccc(CNc2nc[nH]n2)cc1OC1CCCC1,203 to 204 °C
11,CC12CCC3C(CCC4=CC(=O)C=C(CO)C43C)C1CCC2=O (configuration not stated),201 to 202 °C
12,COC(=O)c1[nH]c2c(C)ccc(C)c2c1-c1ccccc1,143 to 145 °C
13,COC12CC(C)(C)C(O1)C(=O)CC2C (configuration not stated),38 to 39 °C
14,O=C(CC1CCCCC1=O)c1ccc(-c2ccccc2)cc1 (configuration not stated),108 to 112 °C
15,CC(=O)Nc1ccc(C)c(NCCS(=O)(=O)F)c1,154 to 155 °C
16,C=C(c1ccccc1)c1cccc(C(C)C(=O)OC)c1 (configuration not stated),69 to 71 °C
17,CC(C)(O)c1cccc(Oc2cccc(-c3c(Cc4ccccc4)cnc4c(C(F)(F)F)cccc34)c2)c1,< 80 °C
18,CN1CCC(C2(O)c3ccccc3Oc3ccc(C(F)(F)F)cc32)CC1 (configuration not stated),179 to 183 °C
19,COc1ccc(C(=O)Nc2cccc(O)c2NC(=O)c2ccc(OC)cc2)cc1,208 to 209 °C
20,Nc1cccc2ccc(OCC3CC3)cc12,49 to 50 °C
21,CSc1cc2c(N3CCc4ccc(Cl)cc43)ncnc2cc1Cl,167 to 168 °C
22,Cc1ccc2c(c1)CCn1ccnc1C2=C1CCN(CCc2ccc(O)cc2)CC1,176 °C
23,COC(=O)COc1ccc(OC/C=C(/c2ccc(I)cc2)c2ccc3oc(C)cc3c2)cc1C,121 to 128 °C
24,COCCOC1C(O)C(CO)OC1n1cnc2c(N)nc(N)nc21 (configuration not stated),152 to 154 °C
25,CCOC(=O)c1ccc(N=C(Nc2ccc(C(=O)OCC)cc2)c2ccc(C)cc2)cc1,246 to 260 °C
26,Cc1ccc(O)c(C(CCCC(c2cc(C)ccc2O)c2cc(C)ccc2O)c2cc(C)ccc2O)c1,220 to 228 °C

row,Structure (SMILES),melting point
1,O=C(O)CCS(=O)CCC(=O)O,114 °C
2,CC(=O)Oc1c(C2CCN(CCCCNC(=O)c3ccc(-c4ccc(C#N)cc4)cc3)CC2)ccc2c1CCCC2,140 to 150 °C
3,CCCCCCCCCCCCCCCCCc1nnc2n1-c1sc(CC)cc1C(c1ccc(C)cc1)=NC2,78 to 80 °C
4,COC(=O)c1cnc(CNC(=O)c2ccccc2)c2ccccc12,140 to 142 °C
5,N#Cc1cccc(C(CC(=O)O)N2C(=O)c3ccccc3C2=O)c1 (configuration not stated),217 to 220 °C
6,Oc1ccc2c(CCCCN3CC=C(c4cccs4)CC3)c[nH]c2c1,181 °C
7,Fc1ccc(-c2ccn(C3CCN(Cc4ccccc4)CC3)c2-c2ccncc2)cc1,132 to 139 °C
8,CCC1CC(NC(C)=O)=NN1c1cccc(Cl)n1 (configuration not stated),170 to 171 °C
9,CC(CC1CCNCC1)c1c[nH]c2ccccc12 (configuration not stated),125 °C
10,COc1ccc(-c2ccc(C(C)=O)cc2[N+](=O)[O-])cc1,124 to 126 °C
11,FC(F)(F)c1cc(Cl)c(-n2nccc2Cl)c(Cl)c1,70 to 72 °C
12,C=C(CO)[C@H](C(=O)OC(c1ccccc1)c1ccccc1)N1C(=O)[C@@H]2N=C(c3ccccc3)O[C@@H]21,100 to 104 °C
13,O=C(Nc1ccc2oc(N3CCOCC3)cc(=O)c2c1)OCc1ccccc1,245 to 250 °C
14,Cn1c(CBr)c(C(=O)c2ccccc2)c(=O)n(C)c1=O,164 to 167 °C
15,CN(C)C(=O)n1oc(CCl)c(Cl)c1=O,107 to 108 °C
16,CC(C)c1ccc(NC(=O)c2ccc(C(=O)O)nc2)cc1C(C)C,199 to 200 °C
17,O=C1CC[C@]2(C[C@H]3CC[C@@H]2C3)C(=O)N1 (racemic),154 to 156 °C
18,CCOCCN(C(=O)N(CCCl)N=O)C1(O)C(CO)OC(OC2CCCCC2)C1O (configuration not stated),62 to 64 °C
19,CCCc1c(C)c(NC(=O)CC(C)(C)C)c(C)c2c1OCC2c1ccc(C(C)C)cc1 (configuration not stated),145 to 148 °C
20,CCn1ncc2c3noc(-c4cccc(OC)c4)c3cnc21,170 to 171 °C
21,CCCOCCOc1ccc(-c2ccc3c(c2)C=C(C(=O)O)CCCN3CC(C)C)cc1,142 to 144 °C
22,O=C(c1cc(N2CCC(F)(F)CC2)ccn1)N(O)Cc1ccccc1,90 to 95 °C
23,CSc1nccc(-c2cn(Cc3ccccc3C#N)c(=O)n2-c2ccc(F)cc2)n1,141 to 142 °C
24,COc1ccc(-c2[nH]c3ccc(Cl)cc3c2-c2ccc(S(C)(=O)=O)cc2)cc1,246 to 248 °C
25,O=c1c2c(oc3ccccc13)O2,66 to 67 °C
26,Nc1ncc2c(n1)-c1ccccc1C(c1ccc(Cl)c(Cl)c1)C2 (configuration not stated),159 to 160 °C

row,Structure (SMILES),melting point
1,Cc1c(NC(=O)C(CSC(=O)c2cccnc2)Cc2ccccc2)cccc1C(=O)O (configuration not stated),80 to 86 °C
2,CCCCOCCOc1ccc(-c2ccc3c(c2)C=C(C(=O)O)CCN3c2csc(C)n2)cc1,155 to 158 °C
3,COc1ccc(-c2nccn2N=Cc2ccc(N(C)C)cc2)cc1,108 °C
4,CCCn1c(=O)c(-c2c(Cl)cccc2Cl)cc2cnc(N)nc21,196 to 197 °C
5,CC(C)(C)OC(=O)N1c2ncc(Br)cc2C=CC1N (configuration not stated),> 230 °C
6,Cc1csc(C2=CCN(CCCC(=O)c3ccc(F)cc3)CC2)n1,81 to 82 °C
7,CC1(C)OC(=O)C[C@H]2NC(=O)[C@H]21,180 to 182 °C
8,COc1ccc(NC(=O)c2c(Cl)cccc2Cl)c2nccc(Cl)c12,238 to 242 °C
9,OC(Cn1cncn1)(c1ccc(F)cc1)C1(Cl)CC1 (configuration not stated),121 °C
10,CCn1nc(-c2ccccc2)c(C(C)=O)c(Nc2cccc3ncccc23)c1=O,220 to 221 °C
11,COc1cccc(CCc2c(CC#N)ccc(OC)c2OC)c1,98 to 100 °C
12,CC(C)CNC(=O)C(C)NC(=O)OCc1ccccc1 (configuration not stated),109 to 111 °C
13,COC(=O)C1Cc2c([nH]c3ccccc23)C(c2cc(OC)ccc2OC)N1C(=O)CCl (configuration not stated),108 to 111 °C
14,CCc1nn2c(-c3ccc(Cl)cc3Cl)nc(C)nc2c1N(CC)CC,98 to 99 °C
15,CCCCCCCCCCCCc1ccc(COc2cc(C(=O)O)nc3ccc(C)cc23)cc1,95 to 96 °C
16,COc1ccc2[nH]cc(CCNC(=O)C(F)(F)F)c2c1,135 to 136 °C
17,CC(C)(C)NC(=O)c1nn(-c2ccc(C(F)(F)F)cc2)c2c1C1CCC2CC1,174 to 176 °C
18,O=C(c1ccccc1)n1c(=O)c(F)cn(C2CC(O)C(CO)O2)c1=O (configuration not stated),126 to 127 °C
19,CCOc1ccc(NC(=O)C(C)(C)O)cc1,146 to 148 °C
20,CC(C)(C)C(=O)c1[nH]c2cc(Cl)ccc2c1N,132 to 134 °C
21,COC1CN(C(=O)c2cc(-c3ccccc3)c(=O)n3nc(C)c4ccsc4c23)C1,169 to 170 °C
22,O=C(O)C(CCc1ccccc1)NC1CCc2ccccc2NC1=O (configuration not stated),173 to 175 °C
23,CCOc1ccc2[nH]c(=O)n(-c3ccc(C(C)C)cc3)c2c1,100 °C
24,CC(C)(C)c1cc(-c2nn(CC#N)c3ncccc23)cc(C(C)(C)C)c1O,141 to 143 °C
25,Cc1ccc(S(=O)(=O)N2CCC[C@H]2C(=O)N[C@@H](Cc2ccc(OCC(N)=O)cc2)C(=O)O)cc1 (Tos-Pro-Tyr(Cam)-OH),195 to 196 °C
26,COc1ccc(-c2cc(Cl)cc3c2OC(C(F)(F)F)C(C(=O)O)=C3)cc1 (configuration not stated),194 to 196 °C

row,Structure (SMILES),melting point
1,CC(C)c1ccc2nc3c(C(=O)O)cccn3c(=O)c2c1,206 to 210 °C
2,COCCOc1ccc(CCNC(=O)/C=C/c2cccs2)cc1S(=O)(=O)NC(=S)NC(C)C,101 °C
3,N=C(Nc1ccc(CCNC(=O)C(F)(F)F)cc1)c1cccs1,181 to 182 °C
4,COc1ccc(CNc2n[nH]c3ncnc(Nc4cccc(Cl)c4)c23)cc1Cl,205 to 208 °C
5,CC(C)(C)OC(=O)[C@@H]1CS[C@H](c2c(F)cccc2Cl)N1C(=O)CNC(=O)Nc1cccc(C(=O)O)c1,148 °C
6,Nc1ccc(Sc2ccccc2)cc1F,48 to 49 °C
7,O=S(=O)(Nc1ccc(Cl)c(Cl)c1)c1cc(S(=O)(=O)Nc2ccc(Cl)c(Cl)c2)c2cc(O)ccc2c1,158 to 160 °C
8,OCc1ccc(Br)c(CO)c1,106 to 108 °C
9,COc1cc2c(cc1OC)CCNCC2,86 to 89 °C
10,CN1C(=O)C(C(=O)NCCCCCC(=O)O)S(=O)(=O)c2ccccc21 (configuration not stated),132 to 134 °C
11,ClCc1c(Cl)c(Cl)c(Cl)c(CCl)c1Cl,135 to 138 °C
12,Cc1cn2c(C(F)(F)F)nnc2c2ccccc12,162 to 164 °C
13,Cc1c(NC(=O)C(CS)Cc2ccccc2)cccc1C(=O)O (configuration not stated),179 to 181 °C
14,CNC(=O)C(=NOC)c1ccccc1Oc1cccc(-c2ccc(Cl)cc2)c1,118 to 121 °C
15,CN1C(=O)C2(COc3cc4c(cc32)OCCO4)c2c(O)cccc21 (configuration not stated),> 250 °C
16,O=C(Nc1ccc2ccc(-c3ccc(F)cc3)nc2n1)c1ccc(C(F)(F)F)cc1,198 °C
17,O=C(O)CCCCCCCCCCNC(=O)C(CS)Cc1ccccc1 (configuration not stated),104 to 105 °C
18,CCc1ncnc2ccc(CCc3cc(OC)ccc3OC)cc12,74 °C
19,C(=C\c1cc(/C=C/c2ccc3cc[nH]c3c2)[nH]n1)/c1ccc(N2CCCCC2)cc1,189 to 191 °C
20,CCCOc1c(C2CCN(CCCCNC(=O)c3ccc(-c4ccc(C(F)(F)F)cc4)cc3)CC2)ccc2ccccc12,191 to 192 °C
21,CCOC(=O)N1C(=S)NC(C)=C(C(=O)OC)C1c1cccc(Cl)c1Cl (configuration not stated),190 to 191 °C
22,CCCCOC(=O)NC(=O)C(c1ccccc1)c1ccccc1,82 to 84 °C
23,CC(C)Nc1ncc2ccc(=O)n(C)c2n1,148 to 149 °C
24,CCCN(CCC)S(=O)(=O)c1cccc(C(=O)Nc2cccc(Br)c2)c1,105 to 107 °C

# Reference: a melting point compilation (Tetko et al.; mined from patent text by program, amines drawn as free bases though some values may be those of a salt)
